According to BindingDB's records for doi:10.1016/j.bmc.2007.03.014 (Universit&#233, 2007):

Assay: Reversal of P-gp-mediated multidrug resistance to vinblastine in human CEM/VLB500 cells after 3 days by resazurin assay

Structure (SMILES) | EC50 [nM]
COc1ccc(CCN2CCC[C@@H]2CNC(=O)c2ccccc2NC(=O)c2cnc3ccccc3c2)cc1OC [(R) N-(2-((1-(3,4-dimethoxyphenethyl)pyrrolidin-2-yl)methylcarbamoyl)phenyl)quinoline-3-carboxamide] | 482
COc1ccc(CN2CCN(c3ccc(NC(=O)c4cc(OC)c(OC)cc4NC(=O)c4cnc5ccccc5c4)cc3)CC2)cc1OC [N-(2-(4-(4-(3,4-dimethoxybenzyl)piperazin-1-yl)phenylcarbamoyl)-4,5-dimethoxyphenyl)quinoline-3-carboxamide] | 59
COc1cc2c(cc1OC)CN(CCc1ccc(NC(=O)c3cc(OC)c(OC)cc3NC(=O)c3cnc4ccccc4c3)cc1)CC2 | 68

Results, then the compound that gave them:

EC50 [nM] | Structure (SMILES)
648 | O=C(Nc1ccccc1C(=O)N[C@@H]1CCCC[C@@H]1N1CCN(c2ccccc2)CC1)c1cnc2ccccc2c1 (racemic) [rac-cis-N-(2-(2-(4-phenylpiperazin-1-yl)cyclohexylcarbamoyl)phenyl)quinoline-3-carboxamide]
124 | COc1ccc(CN2CCN(c3ccc(NC(=O)c4ccccc4NC(=O)c4cnc5ccccc5c4)cc3)CC2)cc1OC [N-(2-(4-(4-(3,4-dimethoxybenzyl)piperazin-1-yl)phenylcarbamoyl)phenyl)quinoline-3-carboxamide]
329 | COc1ccc(CCN2CCC[C@H]2CNC(=O)c2ccccc2NC(=O)c2cnc3ccccc3c2)cc1OC [(S) N-(2-((1-(3,4-dimethoxyphenethyl)pyrrolidin-2-yl)methylcarbamoyl)phenyl)quinoline-3-carboxamide]
